{
  "source": "paper PMC8951016",
  "about": "“Computational Design and Biological Evaluation of Analogs of Lupin Peptide P5 Endowed with Dual PCSK9/HMG-CoAR Inhibiting Activity” (Pharmaceutics, 2022)",
  "key": {"[1]": {"test_system": "LDL uptake, HepG2 cells", "assay": "Fluorescent LDL uptake in HepG2 cells in the presence of PCSK9", "assay_type": "cell-based, human", "conditions": "50 µM + PCSK9 4 µg/mL; Figure 3C", "method": "HepG2 cells (3 × 10^4/well) were seeded in 96-well plates and kept in complete growth medium for 2 days before treatment. The third day, cells were washed with PBS and then starved overnight (O/N) in DMEM without FBS and antibiotics. After starvation, they were treated with 4.0 μg/mL PCSK9 and 4.0 μg/mL PCSK9 + P5 and P5 analogs peptides (50 µM), and vehicle (H2O) for 2 h with at 37 °C under 5% CO2 atmosphere. Fluorescent LDL-uptake was finally assessed following optimized protocol. See Supplementary Materials for further details.\n(§1) PBS for 1.5 h at RT. LDLR primary antibody solution (1:3000 in 5% BSA in PBS, 25 µL/well) was incubated O/N at +4 °C. […] The reaction was stopped with 2 M H2SO4 and then the absorbance at 450 nm was measured using the microplate reader Synergy H1 (Winoo-ski, VT, USA). After the read, cells were stained by adding 1 X Janus Green stain, incubat-ing for 5 min at RT. […]\n(§2) Afterward 100 µL 0.5 M HCl for well were added and incubated for 10 min. After 10 sec-onds shaking, the OD at 595 nm was measured using the microplate reader Synergy H1 […]\n(§3) Fluorescent LDL Uptake. […] The degree of LDL uptake was measured using the Synergy H1 fluo-rescent plate reader (Winooski, VT, USA) (excitation and emission wavelengths 540 and 570 nm, respectively). Fluorescent LDL-uptake was finally assessed following optimized […]"}, "[2]": {"test_system": "LDLR", "assay": "Western blot, LDLR protein level in HepG2", "assay_type": "cell-based, human", "conditions": "50 µM, 24 h", "method": "A total of 1.5 × 10^5 HepG2 cells/well (24-well plate) were treated with 50 μM of P5 and P5 analogs for 24 h. Immunoblotting experiments were performed using optimized protocol. See Supplementary Materials for further details.\nas §1, with “°C. Subsequently, the primary antibody solution was discarded and each sample was washed 5 times with 100 µL/well of PBS (each wash was for 5 min at RT). Goat anti-rabbit Ig-HRP secondary antibody solution (Santa Cruz) (1:6000 in 5% BSA in PBS, 50 µL/well), was added and incubated 1 h at RT.” for “°C.”\nas §2, §3"}, "[3]": {"test_system": "LDLR", "set-up": "method as in 3 sources, ref 48 = [48]; doi:10.1111/jfbc.12757; 48. Lammi C. Zanoni C. Arnoldi A. Aiello G. […] (P3), a peptide from lupin protein, absorbed by Caco-2 cells, modulates cholesterol metabolism in HepG2 cells via SREBP-1 activation J. Food B ||| ref 22 = [22]; doi:10.1016/j.jff.2017.02.009; 22. Zanoni C. Aiello G. Arnoldi A. Lammi C. Investigations on the hypocholesterolaemic activity of […] and LTFPGSAED, two peptides from lupin β-conglutin: Focus on LDLR and PCSK9 pathways J. Fu ||| ref 24 = [24]; PMID 33808034; doi:10.3390/nu13030863; 24. Lammi C. Aiello G. Bollati C. Li J. Bartolomei M. Ranaldi G. Ferruzza S. Fassi E.M.A. Grazioso G. Sambuy Y. Trans-Epithelial Transport, Metabolism, and Biological Activity Assessment of the Multi-", "conditions": "through activation of SREBP-2; cited from earlier work"}},
  "data": [
    {"sequence": "LILPKHSDAD [Peptide P5, natural peptide derived from a peptic lupin protein hydrolysate]", "values": [
      {"measurement": "ability to absorb LDL in presence of PCSK9", "setting": "[1]", "value": "improved"},
      {"measurement": "LDLR protein level (words, P5)", "setting": "[2]", "value": "augmentation of the LDLR protein levels"},
      {"measurement": "LDLR protein level in HepG2 (P5, earlier work, words)", "setting": "[3]", "value": "increases the LDLR protein level"}
    ]}
  ]
}
